From ChEMBL document CHEMBL5137044, “Expansion of the S-CN-DABO scaffold to exploit the impact on inhibitory activities against the non-nucleoside HIV-1 reverse transcriptase” (Eur J Med Chem, 2022)

Experiments:
Cytochrome P450 2D6 = Cytochrome P450 2D6 (Homo sapiens, UniProt P10635); experiment: Inhibition of CYP2D6 in human liver microsomes incubated for 15 to 40 mins in presence of NADPH; format: ADME, Microsome
[1] = molecular target: Human immunodeficiency virus type 1 reverse transcriptase (Human immunodeficiency virus 1, UniProt Q72547); experiment: Inhibition of recombinant wild-type p66/p51 HIV-1 reverse transcriptase incubated for 40 mins by picogreen dye-based spectrofluorometric analysis
[2] = Selectivity index, ratio of CC50 for human MT4 cells to EC50 for antiviral activity against NNRTI resistant HIV-1 infected in human MT4 cells; format: toxicity, cell-based; details: read-out: Ratio CC50/EC50
[3] = Fold resistance, ratio of EC50 for antiviral activity against drug-resistant HIV-1 L100I mutant infected in human MT4 cells to EC50 for antiviral activity against […] HIV-1 infected in human MT4 cells; format: functional
[4] = Fold resistance, ratio of EC50 for antiviral activity against drug-resistant HIV-1 E138K mutant infected in human MT4 cells to EC50 for antiviral activity against […] HIV-1 infected in human MT4 cells; format: functional
[5] = tested on: Human immunodeficiency virus 1; experiment: Antiviral activity against drug-resistant HIV-1 K103 N mutant infected in human MT4 cells assessed as reduction in virus-induced cytopathic effect incubated for 5 days by MTT assay; format: functional, organism-based; details: Human immunodeficiency virus 1, K103 N mutant, MT4, 120 h
[6] = tested on: Human immunodeficiency virus 1; experiment: Antiviral activity against […] HIV-1 infected in human MT4 cells assessed as reduction in virus-induced cytopathic effect incubated for 5 days by MTT assay; format: functional, organism-based; details: Human immunodeficiency virus 1, MT4, 120 h
[7] = Cytotoxicity against human MT4 cells assessed as cell growth inhibition incubated for 5 days by MTT assay; format: toxicity, cell-based; details: time 5 day
[8] = Fold resistance, ratio of EC50 for antiviral activity against drug-resistant HIV-1 Y188L mutant infected in human MT4 cells to EC50 for antiviral activity against […] HIV-1 infected in human MT4 cells; format: functional
[9] = Fold resistance, ratio of EC50 for antiviral activity against drug-resistant HIV-1 K103 N mutant infected in human MT4 cells to EC50 for antiviral activity against […] HIV-1 infected in human MT4 cells; format: functional
[10] = tested on: Human immunodeficiency virus 1; experiment: Antiviral activity against drug-resistant HIV-1 Y188L mutant infected in human MT4 cells assessed as reduction in virus-induced cytopathic effect incubated for 5 days by MTT assay; format: functional, organism-based; details: Human immunodeficiency virus 1, Y188L mutant, MT4, 120 h
[11] = tested on: Human immunodeficiency virus 1; experiment: Antiviral activity against drug-resistant HIV-1 L100I mutant infected in human MT4 cells assessed as reduction in virus-induced cytopathic effect incubated for 5 days by MTT assay; format: functional, organism-based; details: Human immunodeficiency virus 1, L100I mutant, MT4, 120 h
[12] = Fold resistance, ratio of EC50 for antiviral activity against drug-resistant HIV-1 Y181C mutant infected in human MT4 cells to EC50 for antiviral activity against […] HIV-1 infected in human MT4 cells; format: functional
[13] = tested on: Human immunodeficiency virus 1; experiment: Antiviral activity against drug-resistant HIV-1 Y181C mutant infected in human MT4 cells assessed as reduction in virus-induced cytopathic effect incubated for 5 days by MTT assay; format: functional, organism-based; details: Human immunodeficiency virus 1, Y181C mutant, MT4, 120 h
[14] = tested on: Human immunodeficiency virus 1; experiment: Antiviral activity against drug-resistant HIV-1 E138K mutant infected in human MT4 cells assessed as reduction in virus-induced cytopathic effect incubated for 5 days by MTT assay; format: functional, organism-based; details: Human immunodeficiency virus 1, E138K mutant, MT4, 120 h

Sequence of Cytochrome P450 2D6 (P10635 whole entry): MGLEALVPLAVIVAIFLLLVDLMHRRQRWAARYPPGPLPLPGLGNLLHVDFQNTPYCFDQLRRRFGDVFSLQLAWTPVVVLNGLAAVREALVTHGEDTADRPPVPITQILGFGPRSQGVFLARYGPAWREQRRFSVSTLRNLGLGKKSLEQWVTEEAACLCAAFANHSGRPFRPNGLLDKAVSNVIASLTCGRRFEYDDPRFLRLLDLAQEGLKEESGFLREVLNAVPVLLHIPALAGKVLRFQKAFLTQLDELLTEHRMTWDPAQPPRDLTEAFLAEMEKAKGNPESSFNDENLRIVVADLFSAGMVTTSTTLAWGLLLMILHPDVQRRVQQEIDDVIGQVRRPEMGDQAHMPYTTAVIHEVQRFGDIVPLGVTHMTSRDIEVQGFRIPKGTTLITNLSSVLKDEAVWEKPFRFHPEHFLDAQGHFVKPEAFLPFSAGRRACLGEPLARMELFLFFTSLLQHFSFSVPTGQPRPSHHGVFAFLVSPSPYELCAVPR

Q: Which IC50 (Cytochrome P450 2D6) does the source give for `COc1ccc2c(c1)[C@]13CCCC[C@@H]1[C@H](C2)N(C)CC3` [DEXTROMETHORPHAN] here?
A: Its IC50 is 0.0408 µM.

Q: Which results are given for `COc1ccc(C(C#N)c2nc(SC(C)C)[nH]c(=O)c2C)cc1` (stereo not drawn)?
A: IC50 [1]: 20.7 µM; selectivity ratio [2]: 13; Ratio EC50 [3]: 3; Ratio EC50 [4]: 1; EC50 [5]: > 37.1 µM; EC50 [6]: 2.92 µM; CC50 at 120 h [7]: 37.1 µM; Ratio EC50 [8]: >13; Ratio EC50 [9]: >13; EC50 [10]: > 37.1 µM; EC50 [11]: 9.7 µM; Ratio EC50 [12]: >13; EC50 [13]: > 37.1 µM; EC50 [14]: 4.29 µM

Q: Which IC50 [1] does the source give for `Cc1cccc(C)c1C(C#N)c1nc(SC(C)C)[nH]c(=O)c1C` (stereo not drawn) here?
A: The IC50 was 6.59 µM.

Q: What about the selectivity ratio [2] of the same compound?
A: Its selectivity ratio is 73.

Q: What about the “Ratio EC50” value [3] of the same compound?
A: Its value is greater than 73.

Q: What about the “Ratio EC50” value [4] of the same compound?
A: The value was 4.

Q: And the EC50 [5]?
A: Its EC50 is greater than 68.1 µM.

Q: And the EC50 [6]?
A: Its EC50 is 0.93 µM.

Q: What about the CC50 at 120 h [7] of the same compound?
A: Its CC50 at 120 h is 68.1 µM.

Q: And the “Ratio EC50” value [8]?
A: The value was greater than 73.

Q: What about the “Ratio EC50” value [9] of the same compound?
A: The value was greater than 73.

Q: What about the EC50 [10] of the same compound?
A: The EC50 was greater than 68.1 µM.

Q: And the EC50 [11]?
A: Its EC50 is greater than 68.1 µM.

Q: And the “Ratio EC50” value [12]?
A: Its value is greater than 73.

Q: And the EC50 [13]?
A: Its EC50 is greater than 68.1 µM.

Q: What about the EC50 [14] of the same compound?
A: The EC50 was 3.48 µM.

Q: Which results are given for `Cc1c(C(C#N)c2c(F)cccc2Cl)nc(SC(C)C)[nH]c1=O` (stereo not drawn)?
A: IC50 [1]: 0.074 µM; selectivity ratio [2]: 4050; Ratio EC50 [3]: 58; Ratio EC50 [4]: 5; EC50 [5]: 3.3 µM; EC50 [6]: 0.0184 µM; CC50 at 120 h [7]: 74.7 µM; Ratio EC50 [8]: 3191; Ratio EC50 [9]: 179; EC50 [10]: > 58.7 µM; EC50 [11]: 1.06 µM; Ratio EC50 [12]: 76; EC50 [13]: 1.4 µM; EC50 [14]: 0.09 µM
